Converted amounts (≈) assume the structure as drawn.
What was measured:
Candida albicans = test: Antimicrobial MIC protocol, Candida albicans; type: cell-based, Candida albicans (ATCC strain 44506); settings: lowest concentration which completely inhibited growth, 1000 cells/mL, 37° C. overnight
Procedure: (§1) Unless otherwise noted, all media were autoclaved at 121° C. for 15 minutes.
Candida albicans: C. albicans (ATCC strain 44506 was grown on Sabouraud dextrose agar to produce single colonies, one of which was used to inoculate Sabouraud dextrose broth. The broth was incubated at 37° C. with shaking at 200 rpm for 18 hours. The resultant culture was brought to 10% (v/v) glycerol, frozen at -80° C., and used as the inoculum for the anti-Candida assay.
Two-fold dilutions of the test compound were prepared in 50 μL volumes of a suitable solvent using 96-well microtiter plates. In a separate 96-well plate, 35 μL volumes of either Sabouraud dextrose broth or RPMI-1640 were placed in each well. The test compound (5 μL) was then transferred to the broth. An inoculum of C. albicans in the appropriate medium was added to give a cell density of 1000 cells/mL and a total volume of 50 μL. Plates were incubated at 37° C. overnight.

[1] = test system: P388 murine leukemia cells; test: P388 in vitro antitumor screen (inhibition of P388 cell proliferation, MTT assay); type: cell-based; settings: Mus musculus; for IC50: P388 cells, 48-hour incubation, MTT assay
Procedure: P388 murine leukemia cells, obtained from the National Cancer Institute, Bethesda, MD, were maintained at 37° C. in 5% CO2 in humidified air. Growth medium was Roswell Park Memorial Institute medium 1640 supplemented with 10% heat-inactivated horse serum. Stock cultures of P388 cells were grown in antibiotic-free growth medium and were subcultured (10^5 cells/ml, 25 ml cultures in T-25 plastic tissue culture flasks) every 2-3 days. […] An appropriate volume of the dilution was transferred to duplicate wells in a 96-well plate, evaporated to dryness, and 200 μl of growth medium-containing cells at a density of 1×10^5 cells/ml were added per well (final concentration of extract was 20 μg/ml). […] For daily quality control, each technician determines the IC50 of fluorouracil for inhibition of P388 cell proliferation. After 48-hour incubations, cell number was determined with the MTT assay (below), calculated as a percent of untreated cell growth, converted to percent inhibition, and reported to the chemist requesting the screen.
The initial determination of an IC50 value for inhibition of P388 cell proliferation with a crude, semipure, or pure sample was made by diluting the sample in methanol to the appropriate concentration, and then serial 1:1 dilutions were made in duplicate in a 96-well plate, such that the final concentrations in the assay were 20, 10, 5, 1.25, and 0.625 μg/ml. After solvent was evaporated to dryness, cells were added to each well as described above. After 48-hour incubations, cell numbers were determined with the MTT assay, converted to percent control, and plotted versus the log of the sample concentration. Curves were fitted by least-squares linear regression of logit-transformed data and the concentration of sample that inhibited cell proliferation by 50% was reported to the chemist requesting the screen. If the IC50 value was less than 0.625 μg/ml, additional serial dilutions were made and tested for activity.
MTT or 3-(4,5-dimethylthiazol-2-yl)-2,5-diphenyl-tetrazolium bromide is used in an established method (J. Immunol. Methods [1983] 65:55-63) to enumerate cells rather than "Coulter counting." For screening purposes, the correlation between percent inhibition determined for actual crude extracts with the Coulter counter and MTT method was very good (r=0.953, n=102 separate determinations of activity at 20 μg/ml), and no extract that was positive as determined by actual cell counts was lost using the MTT assay.

Bacillus subtilis = test: Antimicrobial disc diffusion assay, Bacillus subtilis; type: cell-based, Bacillus subtilis (ATCC strain 6633); settings: 20 μg/disc, 6.35 mm paper discs, overnight at 37° C., read-out: Antimicrobial Bacillus subtilis zone (diameter of the zone of growth inhibition)
Procedure: as §1
Standard spore stocks (ATCC strain 6633 were purchased from Difco (#0453-36-0).
B. subtilis was inoculated into Penassay medium (1 mL of stock per 200 mL agar), melted, and cooled to 45° C. Plates were poured as described above.
Paper discs (6.35 mm) were impregnated with the test substance and allowed to dry. They were then placed onto the surface of a test plate prepared as detailed above. Plates were incubated overnight at 37° C., after which time the zones of growh inhibition could be read. These were expressed as the diameter of the zone in millimeters. Standard drugs were used in all cases.

MIC (Candida albicans) | IC50 [1] | SMILES | zone of inhibition at 20 µg/disc (Bacillus subtilis) | inhibition at 0.2 µg/mL ([1]; P388, 48 h, read-out: inhibition of cell replication (positive control))
12.5 µg/mL (≈ 33.1 µM) | 1.7 µg/mL (≈ 4.51 µM) | Brc1ccc2c(-c3c[nH]c(-c4c[nH]c5ccccc45)n3)c[nH]c2c1 [Nortopsentin C] | 9 mm | –
– | – | O=c1[nH]cc(F)c(=O)[nH]1 [fluorouracil, reference compound] | – | ~95%
3.1 µg/mL (≈ 6.8 µM) | 7.6 µg/mL (≈ 16.7 µM) | Brc1ccc2c(-c3c[nH]c(-c4c[nH]c5cc(Br)ccc45)n3)c[nH]c2c1 [Nortopsentin A] | 8 mm | –
6.2 µg/mL (≈ 16.4 µM) | 7.8 µg/mL (≈ 20.7 µM) | Brc1ccc2c(-c3nc(-c4c[nH]c5ccccc45)c[nH]3)c[nH]c2c1 [Nortopsentin B] | 9 mm | –
> 50 µg/mL | 0.34 µg/mL | Cn1c(-c2cn(C)c3ccccc23)c[n+](C)c1-c1cn(C)c2cc(Br)ccc12 [Tetramethylnortopsentin B] | 12 mm | –

From patent US4970226A, “Bis-indole imidazole compounds which are useful antitumor and antimicrobial agents” (Harbor Branch Oceanographic Institution, Inc., priority 1989, dated 1990)
